Test results taken from article PMC7914897, “Cytotoxic Potential of a-Azepano- and 3-Amino-3,4-SeCo-Triterpenoids” (International Journal of Molecular Sciences, 2021).
Like-named read-outs stand apart in the source and are kept apart here.

Columns and labels:
[1] = system: LOX IMVI (Melanoma); assay: NCI-60 screen (SRB, 48 h); assay type: cell-based; conditions: Homo sapiens; for GI50: read-out: GI50
[2] = system: BT-549 (Breast cancer); assay: NCI-60 screen (SRB, 48 h); assay type: cell-based; conditions: Homo sapiens; for GI50: BT-549
[3] = system: OVCAR-3 (Ovarian cancer); assay: cells; conditions: Homo sapiens; for GI50: OVCAR-3
[4] = system: NSC lung cancer subpanel; assay: NCI-60 screen, subpanel; conditions: Homo sapiens; for IC (TGI): 48 h, read-out: TGI MG_MID; for GI50: read-out: GI50 MG_MID; for CC50: read-out: LC50 MG_MID
[5] = system: Melanoma subpanel; assay: NCI-60 screen, subpanel; conditions: Homo sapiens; for IC (TGI): 48 h, read-out: TGI MG_MID; for GI50: read-out: GI50 MG_MID; for CC50: read-out: LC50 MG_MID
[6] = system: Ovarian Cancer subpanel; assay: NCI-60 screen, subpanel; conditions: Homo sapiens; for IC (TGI): 48 h, read-out: TGI MG_MID; for GI50: read-out: GI50 MG_MID; for CC50: read-out: LC50 MG_MID
[7] = system: Renal Cancer subpanel; assay: NCI-60 screen, subpanel; conditions: Homo sapiens; for IC (TGI): 48 h, read-out: TGI MG_MID; for GI50: read-out: GI50 MG_MID; for CC50: read-out: LC50 MG_MID
[8] = system: Breast cancer subpanel; assay: NCI-60 screen, subpanel; conditions: Homo sapiens; for IC (TGI): 48 h, read-out: TGI MG_MID; for GI50: read-out: GI50 MG_MID; for CC50: read-out: LC50 MG_MID
[9] = system: HOP-62 (NSC lung cancer); assay: NCI-60 screen (SRB, 48 h); conditions: Homo sapiens; for GI50: HOP-62
[10] = system: NCI-H226 (NSC lung cancer); assay: NCI-60 screen (SRB, 48 h); conditions: Homo sapiens; for GI50: NCI-H226
[11] = system: NCI-H322M (NSC lung cancer); assay: NCI-60 screen (SRB, 48 h); conditions: Homo sapiens; for IC (TGI): 48 h, read-out: TGI
[12] = system: NCI-H460 (NSC lung cancer); assay: NCI-60 screen (SRB, 48 h); conditions: Homo sapiens; for GI50: NCI-H460; for IC (TGI): NCI-H460, 48 h, read-out: TGI
[13] = system: COLO 205 (Colon cancer); assay: NCI-60 screen (SRB, 48 h); conditions: Homo sapiens; for GI50: COLO 205; for IC (TGI): COLO 205, 48 h, read-out: TGI
[14] = system: HCC-2998 (Colon cancer); assay: NCI-60 screen (SRB, 48 h); conditions: Homo sapiens; for GI50: HCC 2998
[15] = system: SW-620 (Colon cancer); assay: NCI-60 screen (SRB, 48 h); conditions: Homo sapiens; for GI50: SW-620; for IC (TGI): SW-620, 48 h, read-out: TGI
[16] = system: SNB-75 (CNS cancer); assay: NCI-60 screen (SRB, 48 h); conditions: Homo sapiens; for GI50: SNB-75; for IC (TGI): SNB-75, 48 h, read-out: TGI
[17] = system: M14 (Melanoma); assay: NCI-60 screen (SRB, 48 h); conditions: for GI50: M14; for IC (TGI): M14, 48 h, read-out: TGI
[18] = system: SK-MEL-2 (Melanoma); assay: NCI-60 screen (SRB, 48 h); conditions: Homo sapiens; for GI50: SK-MEL-2; for IC (TGI): SK-MEL-2, 48 h, read-out: TGI; for CC50: SK-MEL-2, read-out: LC50
[19] = system: UACC-62 (Melanoma); assay: NCI-60 screen (SRB, 48 h); conditions: Homo sapiens; for GI50: UACC-62; for IC (TGI): UACC-62, 48 h, read-out: TGI
[20] = system: SK-OV-3 (Ovarian cancer); assay: NCI-60 screen (SRB, 48 h); conditions: Homo sapiens; for GI50: SK-OV-3; for IC (TGI): SK-OV-3, 48 h, read-out: TGI
[21] = system: A498 (Renal cancer); assay: NCI-60 screen (SRB, 48 h); conditions: Homo sapiens; for GI50: A498; for IC (TGI): A498, 48 h, read-out: TGI; for CC50: A498, read-out: LC50
[22] = system: ACHN (Renal cancer); assay: NCI-60 screen (SRB, 48 h); conditions: Homo sapiens; for IC (TGI): 48 h, read-out: TGI
[23] = system: RXF 393 (Renal cancer); assay: NCI-60 screen (SRB, 48 h); conditions: Homo sapiens
[24] = system: UO-31 (Renal cancer); assay: NCI-60 screen (SRB, 48 h); conditions: Homo sapiens; for GI50: UO-31
[25] = system: PC-3 (Prostate cancer); assay: NCI-60 screen (SRB, 48 h); conditions: Homo sapiens; for GI50: PC-3
[26] = system: DU-145 (Prostate cancer); assay: NCI-60 screen (SRB, 48 h); conditions: Homo sapiens; for GI50: DU-145; for IC (TGI): DU-145, 48 h, read-out: TGI
[27] = system: MCF7 (Breast cancer); assay: NCI-60 screen (SRB, 48 h); conditions: Homo sapiens; for GI50: MCF7; for IC (TGI): MCF7, 48 h, read-out: TGI
[28] = system: panel of approximately 60 cancer cell lines; assay: NCI-60 screen (SRB, 48 h), full panel; conditions: for Positive Cytostatic Effect (cell lines with percent growth 0 to 50 / total) / Positive Cytotoxic Effect (cell lines with percent growth < 0 / total) / number of cancer cell lines the compound was active against: 1 dose 10 µM; for activity at 10 µM / IC (TGI) / GI50 / CC50: Homo sapiens; for activity at 10 µM / IC (TGI): 48 h; for IC (TGI): read-out: TGI MG_MID60, average over all cell lines; for CC50: read-out: LC50 MG_MID60, average over all cell lines
[29] = read-out: GI50 against all human tumor cell lines

SMILES: Cc1ccc(S(=O)(=O)OC[C@]23CCC(C)(C)C[C@H]2C2=CC[C@@H]4[C@@]5(C)CCCNC(C)(C)[C@@H]5CC[C@@]4(C)[C@]2(C)CC3)cc1 [Compound 15]
- IC (TGI) ([1]; 48 h): 3 µM
- activity at 10 µM ([1]; 48 h, 1 dose 10 µM, read-out: Growth % of the Most Sensitive Cell Lines): -87.7%
- GI50 [1]: 1600 nM
- GI50 [2]: 1900 nM
- IC (TGI) ([2]; BT-549, 48 h): 3.78 µM
- GI50 [3]: 1840 nM
- IC (TGI) ([3]; OVCAR-3, 48 h, read-out: TGI): 3.51 µM
- IC (TGI) [4]: 3.42 µM
- GI50 [4]: 3140 nM
- CC50 [4]: 53.4 µM
- IC (TGI) [5]: 3.53 µM
- GI50 [5]: 1810 nM
- CC50 [5]: 16.4 µM
- IC (TGI) [6]: 3.35 µM
- GI50 [6]: 1740 nM
- CC50 [6]: 6.03 µM
- IC (TGI) [7]: 5.44 µM
- GI50 [7]: 2130 nM
- CC50 [7]: 14.3 µM
- IC (TGI) [8]: 3.63 µM
- GI50 [8]: 1750 nM
- CC50 [8]: 9.14 µM
- GI50 [9]: 1810 nM
- IC (TGI) ([9]; HOP-62, 48 h, read-out: TGI): 3.56 µM
- GI50 [10]: 1710 nM
- IC (TGI) ([10]; NCI-H226, 48 h, read-out: TGI): 3.77 µM
- GI50 [11]: 14.9 µM
- IC (TGI) [11]: 4.05 µM
- CC50 ([11]; read-out: LC50): > 100 µM
- GI50 [12]: 1770 nM
- IC (TGI) [12]: 3.37 µM
- GI50 [13]: 1630 nM
- IC (TGI) [13]: 3.19 µM
- GI50 [14]: 1630 nM
- IC (TGI) ([14]; HCC 2998, 48 h, read-out: TGI): 3.21 µM
- GI50 [15]: 1730 nM
- IC (TGI) [15]: 3.36 µM
- GI50 [16]: 1480 nM
- IC (TGI) [16]: 2.94 µM
- CC50 ([16]; SNB-75, read-out: LC50): 5.85 µM
- GI50 ([17]; Homo sapiens): 1870 nM
- IC (TGI) ([17]; Homo sapiens): 3.58 µM
- GI50 [18]: 2190 nM
- IC (TGI) [18]: 4.83 µM
- CC50 [18]: 16.4 µM
- GI50 [19]: 1680 nM
- IC (TGI) [19]: 3.2 µM
- GI50 [20]: 1760 nM
- IC (TGI) [20]: 3.26 µM
- CC50 ([20]; SK-OV-3, read-out: LC50): 6.03 µM
- GI50 [21]: 5.99 µM
- IC (TGI) [21]: 21.4 µM
- CC50 [21]: 57.6 µM
- GI50 [22]: 1680 nM
- IC (TGI) [22]: 3.07 µM
- CC50 ([22]; read-out: LC50): 5.58 µM
- GI50 ([23]; RXF 393): 1380 nM
- IC (TGI) ([23]; RXF 393, 48 h, read-out: TGI): 2.78 µM
- CC50 ([23]; RXF 393, read-out: LC50): 5.59 µM
- GI50 [24]: 1290 nM
- IC (TGI) ([24]; UO-31, 48 h, read-out: TGI): 2.68 µM
- CC50 ([24]; UO-31, read-out: LC50): 5.58 µM
- GI50 [25]: 1660 nM
- IC (TGI) ([25]; PC-3, 48 h, read-out: TGI): 3.16 µM
- GI50 [26]: 1790 nM
- IC (TGI) [26]: 3.37 µM
- CC50 ([26]; DU-145, read-out: LC50): 6.35 µM
- GI50 [27]: 1620 nM
- IC (TGI) [27]: 3.38 µM
- Positive Cytostatic Effect (cell lines with percent growth 0 to 50 / total) [28]: 17/60
- Positive Cytotoxic Effect (cell lines with percent growth < 0 / total) [28]: 14/60
- number of cancer cell lines the compound was active against [28]: 22 cell lines
- activity at 10 µM ([28]; read-out: Mean Growth, %): 37.2%
- activity at 10 µM ([28]; read-out: Range of Growth, %): -87.7 to 104%
- IC (TGI) [28]: 3.8 µM
- GI50 ([28]; read-out: GI50 MG_MID60): 1990 nM
- GI50 [28, 29]: < 15000 nM
- GI50 ([28]; read-out: GI50 against the most sensitive cell lines): 200 to 940 nM
- CC50 [28]: 18.9 µM

SMILES: C[C@H]1[C@H](C)CC[C@]2(C(=O)Nc3ccc4ncccc4c3)CC[C@]3(C)C(=CC[C@@H]4[C@@]5(C)CCCNC(C)(C)[C@@H]5CC[C@]43C)[C@H]12 [Compound 14]
- GI50 [1]: 1780 nM
- GI50 [2]: 1840 nM
- GI50 [3]: 1810 nM
- IC (TGI) [4]: 3.36 µM
- GI50 [4]: 1780 nM
- CC50 [4]: 7.53 µM
- IC (TGI) [5]: 3.32 µM
- GI50 [5]: 1770 nM
- CC50 [5]: 6.25 µM
- IC (TGI) [6]: 3.3 µM
- GI50 [6]: 1770 nM
- CC50 [6]: 6.69 µM
- IC (TGI) [7]: 3.24 µM
- GI50 [7]: 1660 nM
- CC50 [7]: 5.6 µM
- IC (TGI) [8]: 3.44 µM
- GI50 [8]: 1760 nM
- CC50 [8]: 6.87 µM
- GI50 [9]: 1760 nM
- GI50 [10]: 2100 nM
- GI50 [11]: 1.72 µM
- IC (TGI) [11]: 3.11 µM
- GI50 [12]: 1940 nM
- IC (TGI) [12]: 3.82 µM
- CC50 ([12]; NCI-H460, read-out: LC50): 7.53 µM
- GI50 [13]: 1750 nM
- IC (TGI) [13]: 3.59 µM
- GI50 [14]: 1400 nM
- GI50 [15]: 1800 nM
- IC (TGI) [15]: 3.37 µM
- CC50 ([15]; SW-620, read-out: LC50): 6.31 µM
- GI50 [16]: 1520 nM
- IC (TGI) [16]: 3.09 µM
- GI50 ([17]; Homo sapiens): 1940 nM
- IC (TGI) ([17]; Homo sapiens): 3.59 µM
- CC50 ([17]; Homo sapiens, M14, read-out: LC50): 6.65 µM
- Growth % of the Most Sensitive Cell Lines ([17]; M14, 1 dose 10 µM): −92.02%
- GI50 [18]: 1840 nM
- IC (TGI) [18]: 3.43 µM
- CC50 [18]: 6.42 µM
- GI50 [19]: 1740 nM
- IC (TGI) [19]: 3.23 µM
- CC50 ([19]; UACC-62, read-out: LC50): 6 µM
- GI50 [20]: 1770 nM
- IC (TGI) [20]: 3.27 µM
- GI50 [21]: 1.56 µM
- IC (TGI) [21]: 2.96 µM
- CC50 [21]: 5.6 µM
- GI50 [22]: 1770 nM
- IC (TGI) [22]: 3.24 µM
- GI50 [24]: 1500 nM
- GI50 [25]: 1760 nM
- GI50 [26]: 1760 nM
- IC (TGI) [26]: 3.28 µM
- GI50 [27]: 1560 nM
- IC (TGI) [27]: 3.25 µM
- Positive Cytostatic Effect (cell lines with percent growth 0 to 50 / total) [28]: 3/59
- Positive Cytotoxic Effect (cell lines with percent growth < 0 / total) [28]: 42/59
- number of cancer cell lines the compound was active against [28]: 45 cell lines
- activity at 10 µM ([28]; read-out: Mean Growth, %): -27.9%
- activity at 10 µM ([28]; read-out: Range of Growth, %): -100 to 110%
- IC (TGI) [28]: 3.35 µM
- GI50 ([28]; read-out: GI50 MG_MID60): 1720 nM
- GI50 [28, 29]: < 3000 nM
- CC50 [28]: 6.52 µM
